Test results reported in PMC3008316 (Antiviral research, 2009).
Where two headings read alike, the source gives them in different places.

Experiments:
[1] = tested on: Tacaribe virus (TCRV), strain TRVL 11573
[2] = tested on: Junin virus (JUNV) vaccine strain Candid 1
[3] = tested on: Tacaribe virus (TCRV), strain TRVL 11573; remark: listed apart in the source
[4] = tested on: PTV, Adames strain
[5] = tested on: Tacaribe virus (TCRV), strain TRVL 11573; test: microbe, parasite or virus in culture; settings: Mammarenavirus tacaribeense, Vero 76, read-out: EC90 ± SD (VYR)
[6] = in vitro; settings: monkey, CC50 ± SD
[7] = tested on: RVFV vaccine strain MP-12
[8] = tested on: PTV, Adames strain; design: species or system C57BL/6 mice; settings: mouse, in vivo
[9] = tested on: RVFV vaccine strain MP-12; test: microbe, parasite or virus in culture; settings: Rift Valley fever virus, Vero 76, read-out: EC90 ± SD (VYR)
[10] = tested on: PICV, strain An 4763
[11] = tested on: Sandfly fever virus, Naples strain (SFNV); test: microbe, parasite or virus in culture; settings: sandfly fever Sicilian virus, Vero 76, read-out: EC50 ± SD (CPER)
[12] = tested on: Junin virus (JUNV) vaccine strain Candid 1; test: microbe, parasite or virus in culture; settings: Mammarenavirus juninense, Vero, read-out: EC90 ± SD (VYR)
[13] = tested on: Junin virus (JUNV) vaccine strain Candid 1; remark: listed apart in the source
[14] = tested on: Tacaribe virus (TCRV), strain TRVL 11573; test: microbe, parasite or virus in culture; settings: Mammarenavirus tacaribeense, Vero 76, read-out: EC50 ± SD (CPER)
[15] = in vitro; settings: monkey, CC50 ± SD; remark: listed apart in the source
[16] = tested on: PICV, strain An 4763; test: microbe, parasite or virus in culture; settings: Pichinde virus, Vero, read-out: EC90 ± SD (VYR)
[17] = tested on: Sandfly fever virus, Naples strain (SFNV)
[18] = rats; ref Y. Furuta, unpublished data; cited from earlier work
[19] = tested on: Junin virus (JUNV) vaccine strain Candid 1; test: microbe, parasite or virus in culture; settings: Mammarenavirus juninense, Vero, read-out: EC50 ± SD (CPER)
[20] = tested on: PICV, strain An 4763; remark: listed apart in the source
[21] = tested on: Sandfly fever virus, Naples strain (SFNV); remark: listed apart in the source
[22] = tested on: PTV, Adames strain; remark: listed apart in the source
[23] = tested on: PTV, Adames strain; test: microbe, parasite or virus in culture; settings: Punta Toro virus, Vero 76, read-out: EC90 ± SD (VYR)
[24] = tested on: RVFV vaccine strain MP-12; remark: listed apart in the source
[25] = tested on: PTV, Adames strain; design: species or system Syrian hamsters; settings: hamster, in vivo
[26] = tested on: PICV, strain An 4763; type: in vivo, Syrian hamsters
[27] = tested on: RVFV vaccine strain MP-12; test: microbe, parasite or virus in culture; settings: Rift Valley fever virus, Vero 76, read-out: EC50 ± SD (CPER)
[28] = tested on: PTV, Adames strain; test: microbe, parasite or virus in culture; settings: Punta Toro virus, Vero 76, read-out: EC50 ± SD (CPER)
[29] = tested on: Sandfly fever virus, Naples strain (SFNV); test: microbe, parasite or virus in culture; settings: sandfly fever Sicilian virus, Vero 76, read-out: EC90 ± SD (VYR)
[30] = tested on: PICV, strain An 4763; test: microbe, parasite or virus in culture; settings: Pichinde virus, Vero, read-out: EC50 ± SD (CPER)
[31] = tested on: phleboviruses (RVFV, PTV, SFNV); test: organism not typed; type: cell-based
[32] = hamster, in vivo, po, 25 mg/kg/day
[33] = hamster, in vivo, po, 50 mg/kg/day
[34] = hamster, in vivo, po, 100 mg/kg/day

NC(=O)c1nccn([C@@H]2O[C@H](CO)[C@@H](O)[C@H]2O)c1=O [T-1106, 3,4-dihydro-3-oxo-4-β-D-ribofuranosyl-2-pyrazinecarboxamide]
SI (CC50/EC90) [1]: >13
SI (CC50/EC90) [2]: >33
SI (CC50/EC50) [3]: >6
SI (CC50/EC50) [4]: >5
EC90 [5]: 296 ± 273 µM
CC50 [6]: > 3720 µM
SI (CC50/EC90) [7]: >25
ED50 (survival) [8]: 201 µmol/kg/day
EC90 [9]: 146 ± 129 µM
SI (CC50/EC50) [10]: >24
EC50 [11]: 152 ± 13 µM
EC90 [12]: 114 ± 28 µM
SI (CC50/EC50) [13]: >29
EC50 [14]: 619 ± 205 µM
CC50 [15]: > 3720 µM
EC90 [16]: 173 ± 93 µM
SI (CC50/EC90) [17]: >49
Liver tissue:plasma ratio relative to T-705 [18]: ~ 50 fold
EC50 [19]: 128 ± 44 µM
SI (CC50/EC90) [20]: >21
SI (CC50/EC50) [21]: >24
SI (CC50/EC90) [22]: >6
EC90 [23]: 576 ± 450 µM
SI (CC50/EC50) [24]: >33
ED50 (survival) [25]: 12 µmol/kg/day
Mean virus titer ± SD, liver [25]: < 4.3 ± 2.1 (40)
Potency relative to T-705 based on ED50 [25]: 9.4 times
Survival compared to placebo [25]: Significant protection
ALT ± SD ([25]; po, 25 mg/kg/day): 251 ± 438 international units per liter
Mean virus titer ± SD, liver ([25]; po, 25 mg/kg/day): < 4.6 ± 1.7 (80)
Mean virus titer ± SD, serum ([25]; po, 25 mg/kg/day): < 4.8 ± 2.9 (60)
Percentage of animals with detectable virus, liver ([25]; po, 25 mg/kg/day): < 4.6 ± 1.7 (80) %
Percentage of animals with detectable virus, serum ([25]; po, 25 mg/kg/day): < 4.8 ± 2.9 (60) %
ALT ± SD ([25]; po, 50 mg/kg/day): 802 ± 1149 international units per liter
Mean virus titer ± SD, liver ([25]; po, 50 mg/kg/day): < 4.9 ± 1.5 (80)
Mean virus titer ± SD, serum ([25]; po, 50 mg/kg/day): < 3.9 ± 2.2 (40)
Percentage of animals with detectable virus, liver ([25]; po, 50 mg/kg/day): < 4.9 ± 1.5 (80) %
Percentage of animals with detectable virus, serum ([25]; po, 50 mg/kg/day): < 3.9 ± 2.2 (40) %
ALT ± SD ([25]; po, 100 mg/kg/day): 446 ± 959 international units per liter
Mean virus titer ± SD, serum ([25]; po, 100 mg/kg/day): < 3.6 ± 2.6 (40)
Percentage of animals with detectable virus, liver ([25]; po, 100 mg/kg/day): < 4.3 ± 2.1 (40) %
Percentage of animals with detectable virus, serum ([25]; po, 100 mg/kg/day): < 3.6 ± 2.6 (40) %
Survival compared to placebo, log-rank analysis ([26]; hamster, in vivo, 100 mg/kg/day): failed to significantly protect
ED50 (survival) ([26]; hamster, in vivo, po): 441 µmol/kg/day
ALT ± SD [26, 32]: 1354 ± 961 international units per liter
Mean virus titer ± SD, liver [26, 32]: 7.7 ± 0.6 (100)
Mean virus titer ± SD, serum [26, 32]: 6.5 ± 1.1 (100)
Percentage of animals with detectable virus, liver [26, 32]: 7.7 ± 0.6 (100) %
Percentage of animals with detectable virus, serum [26, 32]: 6.5 ± 1.1 (100) %
Mean virus titer ± SD, liver [26, 33]: 7.1 ± 1.5 (100)
Mean virus titer ± SD, serum [26, 33]: < 5.4 ± 2.1 (80)
Percentage of animals with detectable virus, liver [26, 33]: 7.1 ± 1.5 (100) %
Percentage of animals with detectable virus, serum [26, 33]: < 5.4 ± 2.1 (80) %
ALT ± SD [26, 34]: 961 ± 1071 international units per liter
Mean virus titer ± SD, liver [26, 34]: 7.4 ± 0.4 (100)
Mean virus titer ± SD, serum [26, 34]: 6.5 ± 1.0 (100)
Percentage of animals with detectable virus, liver [26, 34]: 7.4 ± 0.4 (100) %
Percentage of animals with detectable virus, serum [26, 34]: 6.5 ± 1.0 (100) %
Survival outcome ([26]; n=10): 4 of the 10
Animals protected (survival) ([26]; n=10, 25 mg/kg/day): 20%
Animals protected (survival) ([26]; n=10, 50 mg/kg/day): 40%
EC50 [27]: 111 ± 58 µM
EC50 [28]: 743 ± 297 µM
EC90 [29]: 76 ± 15 µM
EC50 [30]: 154 ± 39 µM
Greater sensitivity of RVFV to inhibitory activity [31]: ~ 5 times
Inhibitory concentrations, range [31]: 76 to 743 µM
EC50 ([31]; read-out: EC50 values, range (CPE reduction assay)): 111 to 743 µM
EC90 ([31]; read-out: EC90 values, range (VYR)): 76 to 576 µM
